Experimental data published in ChEMBL document CHEMBL3639255, “Bivalent diazo bicyclic Smac mimetics and the uses thereof” (2014).

How the values were obtained:
[1] = biological target: Baculoviral IAP repeat-containing protein 2 (Homo sapiens, UniProt Q13490); experiment: (§1) Fluorescence Polarization-Based Assays: An in vitro fluorescence polarization (FP) based binding assay was used to test the binding ability of the compounds of the present invention to certain IAP proteins (Nikolovska-Coleska et al., Anal. Biochem. 332:261-73 (2004)). he FP-based assay for XIAP BIR3 protein was described in detail previously (Nikolovska-Coleska et al., Anal. Biochem. 332:261-73 (2004)). Briefly, 5-carboxyfluorescein was coupled to the lysine side chain of a mutated Smac peptide with the sequence (AbuRPFK-Fam) and this fluorescently tagged peptide (named SM5F) was used as the fluorescent tracer in FP-based binding assay to XIAP BIR3.
Sequence of Baculoviral IAP repeat-containing protein 2 (Q13490 whole entry, looked up, stated change not applied): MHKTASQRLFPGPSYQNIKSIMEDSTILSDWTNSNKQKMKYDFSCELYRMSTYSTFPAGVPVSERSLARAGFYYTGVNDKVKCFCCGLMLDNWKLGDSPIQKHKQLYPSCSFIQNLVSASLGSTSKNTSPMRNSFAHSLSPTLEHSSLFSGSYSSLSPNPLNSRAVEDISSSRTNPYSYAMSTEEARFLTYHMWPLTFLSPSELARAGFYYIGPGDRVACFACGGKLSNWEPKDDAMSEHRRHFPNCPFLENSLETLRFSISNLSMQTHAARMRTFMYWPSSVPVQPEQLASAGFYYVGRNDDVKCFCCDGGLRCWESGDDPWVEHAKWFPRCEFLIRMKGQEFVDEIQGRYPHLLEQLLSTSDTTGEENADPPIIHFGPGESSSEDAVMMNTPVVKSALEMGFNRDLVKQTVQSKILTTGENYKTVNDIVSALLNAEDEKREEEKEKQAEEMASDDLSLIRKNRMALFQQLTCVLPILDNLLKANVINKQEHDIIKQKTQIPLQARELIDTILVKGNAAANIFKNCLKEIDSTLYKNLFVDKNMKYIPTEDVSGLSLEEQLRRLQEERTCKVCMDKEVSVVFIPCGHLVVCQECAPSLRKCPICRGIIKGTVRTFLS

[2] = biological target: Baculoviral IAP repeat-containing protein 3 (Homo sapiens, UniProt Q13489); experiment: as §1
Sequence of Baculoviral IAP repeat-containing protein 3 (Q13489 whole entry, looked up, change not shown): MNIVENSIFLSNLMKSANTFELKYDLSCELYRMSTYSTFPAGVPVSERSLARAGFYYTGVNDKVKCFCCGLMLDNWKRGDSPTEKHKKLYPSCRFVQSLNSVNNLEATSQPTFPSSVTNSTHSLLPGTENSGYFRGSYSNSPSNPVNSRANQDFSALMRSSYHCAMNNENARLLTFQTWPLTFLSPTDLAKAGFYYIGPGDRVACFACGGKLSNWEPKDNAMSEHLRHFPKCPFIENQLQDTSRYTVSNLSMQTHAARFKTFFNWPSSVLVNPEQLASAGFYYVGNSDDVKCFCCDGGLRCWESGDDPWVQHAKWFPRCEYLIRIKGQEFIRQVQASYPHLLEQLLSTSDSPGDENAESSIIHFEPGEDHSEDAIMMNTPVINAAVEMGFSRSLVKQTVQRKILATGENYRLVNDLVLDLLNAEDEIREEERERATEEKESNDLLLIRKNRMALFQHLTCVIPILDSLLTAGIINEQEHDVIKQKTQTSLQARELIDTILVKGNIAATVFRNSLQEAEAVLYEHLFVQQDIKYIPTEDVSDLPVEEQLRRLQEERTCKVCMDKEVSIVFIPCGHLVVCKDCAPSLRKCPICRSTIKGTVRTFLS

Row | Structure (SMILES) | IC50 [1] | IC50 [2]
1 | C=CC(C=C)c1cccc2[nH]c([C@@H]3CC[C@@H]4CCN(C(=O)CCCCCCCCCCC(=O)N5CC[C@H]6CC[C@@H](c7nc8c(-c9ccccc9)cccc8[nH]7)N6C(=O)[C@@H](NC(=O)[C@H](C)NC)C5)C[C@H](NC(=O)[C@H](C)NC)C(=O)N43)nc12 | < 50 nM | –
2 | CN[C@@H](C)C(=O)N[C@H]1CN(C(=O)CCCCCCCCCCC(=O)N2CC[C@H]3CC[C@@H](c4nc5c(-c6ccccc6)cccc5[nH]4)N3C(=O)[C@@H](NC(=O)[C@H](C)NC)C2)CC[C@H]2CC[C@@H](c3nc4c(-c5ccccc5)cccc4[nH]3)N2C1=O | – | < 50 nM
